# Measured values published in patent US20190029987A1, “DIMETHYL FUMARATE (DMF) FOR PREVENTION OR TREATMENT OF GOUT, ACNE, DIABETES, VITILIGO AND/OR PYODERMA GANGRENOSUM” (UNIVERSITAT ZURICH, priority 2016, published 2019).
# Legend:
# [1] = test system: Nrf2 target genes (GCLC, GCLM, NAD(P)H dehydrogenase, quinone 1); assay: Nrf2 target gene expression in HPKs (qRT-PCR); type: cell-based, human; settings: 10 μM, RNA after 8 h, FIG. 6G
# Procedure: Human primary keratinocytes (HPKs) constitutively express pro-IL-1β and inflammasome proteins.
# qRT-PCR was performed with the LightCycler 480 SYBR Green Master or the FastStart Universal SYBR Green Master (both Roche, Rotkreuz, Switzerland) using total cellular RNA. Specific primer pairs (Supplementary Table 2) were designed to generate an approximately 150 bp fragment flanking an intron-exon border of the corresponding gene. The LightCycler 480 96-well version (ROCHE, Rotkreuz, Switzerland) or the ViiA 7 Real-Time FOR System (Life Technologies, Carlsbad, US-CA) was used for reaction and detection according the instructions of the manufacturer.
# FIG. 6: Bone marrow (BM) cells were isolated from Nrf2-deficient mice and wt litterfnates and differentiated into dendritic cells (DCs). (A, B) After priming with upLPS overnight, BMDCs were treated with the NLRP3 inflammasome activators nigericin (20 μM), zymosan (20 μg/ml), MSU (150 μg/ml), ATP (5 mM) or transfected with poly(dA:dT) (1 μg/ml) for activation of the AIM2 inflammasome. After 6 h, supernatants were analysed for secretion of IL-1β by (A) ELISA or (B) Western blot. Mock-treated but primed BMDCs were analysed for expression of inflammasome proteins and pro-IL-1β at the (C) mRNA level by qRT-PCR or at the (D) protein level by Western blot. (B, D) Duplicates from two individual mice per genotype are shown (biological replicates). (E-G) HPKs were treated with the Nrf2 activators SFN (10 μM), tBHQ (10 μM), DMF (50 μM) and 15d-PGJ2 (10 μM). After 1 h, the cells were harvested and analysed for expression of the indicated proteins using total cell lysates (E) or cytoplasmic and nuclear lysates (F). Western blots for the nuclear protein lamin NC and the cytoplasmic protein α-tubulin served as controls. Specific bands are marked with an asterisk. (G) Total RNA was isolated after 8 h and qRT-PCR was performed for quantification of expression of the Nrf2 target genes glutamate-cysteine ligase, catalytic subunit (GCLC), glutamate-cysteine ligase, modifier subunit (GCLM), and NAD(P)H dehydrogenase, quinone 1 (N001). (A-G) Representative experiments performed at least three times are shown. […] Mann-Whitney test was performed. […] Mann-Whitney test was performed. *P≤0.05
# NLRP3 inflammasome = assay: UVB irradiation-induced inflammasome activation in HPKs (IL-1β ELISA, Western blot); type: cell-based, human; settings: for relative efficiency/potency of inflammasome inhibition between compounds: UVB, same concentrations; for relative efficiency/potency of inflammasome inhibition between compounds / inflammasome activation (processed caspase-1, mature IL-1β and -18 in the supernatant): FIG. 2A, 8A-C; for inflammasome activation (processed caspase-1, mature IL-1β and -18 in the supernatant): different doses, UVB 30 min later, harvested after 5 h
# Excerpt: To determine the effects of Nrf2 activating compounds on inflammasome activation, the inventors treated keratinocytes with different doses of SFN, tBHQ, DMF or 15d-PGJ2 and irradiated the cells with UVB.
# SFN, DMF, 15d-PGJ2, tBHQ, zymosan, ATP, poly(dA:dT), cycloheximide, puromycin, and doxycycline were purchased from Sigma (Munich, Germany), nigericin from Enzo Life Sciences (New York, US-NY), MG132 from Calbiochem (Darmstadt, Germany), and blasticidin from Invivogen (Toulouse, France). Release of IL-1p was determined by ELISA according the instructions of the manufacturer (R&D Systems, Minneapolis, US-MN). MSU crystals were prepared by crystallisation of a supersaturated solution of uric acid under mildly basic conditions. Briefly, uric acid was added to a solution of NaOH, the solution was boiled until the uric acid was dissolved and passed through a filter. NaCl was added and crystallisation was performed at 4° C. Crystals were filtered, then dried using a speedvac, weighted and autoclaved.
# (A) HPKs were treated with the indicated concentrations of the Nrf2 activating compound tBHQ irradiated with UVB 30 min later and harvested after 5 h. ELISA measurements were performed for quantification of IL-1β secretion and Western blots for analysis of expression and activation of the indicated proteins. Specific bands are marked with an asterisk. (B) THP-1 cells were differentiated with PMA (27 nM) for 3 d, primed with upLPS (100 ng/ml) overnight, and 1 h before inflammasome activation (5 μM nigericin, 150 μg/ml MSU) treated with SFN (10 μM), 15-PGJ2 (10 μM) or DMF (50 μM) (15-PG: 15-PGJ2). Cells and supernatants were harvested after 5 h and analysed for inflammasome activation by ELISA measurement of IL-1p and Western blots as indicated. (C) Freshly isolated PBMCs from human blood were primed overnight with upLPS (100 ng/ml) and treated with SFN (10 μM), tBHQ (10 μM), DMF (50 μM) or 15-PGJ2 (10 μM) 1 h before inflammasome activation by nigericin (5 μM). ELISA measurement for secretion of IL-1β as readout for inflammasome activation was performed after 5 h. (D) HPKs or (E) differentiated and primed THP-1 cells were pretreated with cycloheximide (CHX, 30 μg/ml) to block protein synthesis for 1 h before SFN (10 μM) was added to the cells and after an additional hour the inflammasome was activated by (D) irradiation with UVB or (E) treatment with nigericin (5 μM). Cells and supernatants were harvested after (D) 6 h or (E) 3.5 h and analysed for inflammasome activation by Western blot as indicated. (A-E) Representative experiments performed at least three times are shown. Statistics: (A-C) Error bars represent the mean±SD of a representative experiment performed in triplicates. One-way ANOVA was performed. **P≤0.01; ***P≤0.001.
# (§1) FIG. 8: (A-C) HPKs were treated with the Nrf2 activating compounds (A) SFN, (B) DMF, and (C) 15d-PGJ2, irradiated with UVB 30 min later and harvested after 5 h. Analogous experiment as described in FIG. 2A for tBHQ. (D) THP-1 cells were differentiated with TPA for 3 d and primed with LPS overnight. Then, cells were treated with the solvent DMSO, SFN (10 μM) or 15-PGJ2 (10 μM). After 30 min the inflammasome was activated by nigericin treatment and cells and supernatants were harvested after 2.5 h. Western blots showing prolL-1β and mature IL-1p in the lysate and supernatant. 20% lysate and supernatant of a 12 well was used, respectively, in order to allow a comparison. IL-1β was quantified in the supernatant by ELISA and cytotoxicity by LDH release.
# THP-1 cells = assay: Pyroptosis in inflammasome activated THP-1 cells (LDH release); type: cell-based, human; settings: THP-1, 10 μM 30 min before nigericin, 2.5 h, FIG. 8D
# Procedure: To determine the effects of Nrf2 activating compounds on inflammasome activation, the inventors treated keratinocytes with different doses of SFN, tBHQ, DMF or 15d-PGJ2 and irradiated the cells with UVB. […] As the Nrf2 activators were added to the cells only 15 to 30 min prior to inflammasome activation, it is unlikely that Nrf2 target genes are involved in inflammasome inhibition.
# Supernatants were harvested and after centrifugation (400×g) used for analysis. Cells were lysed in culture medium with 2% Triton X-100 for 10 min, LDH activity was determined according to the manufacturer (Cytotox 96 nonradioactive cytotoxicity assay, Promega, Madison, US-WC).
# as §1, with “20% lysate and supernatant of a 12 well was used, respectively, in order to allow a comparison.” left out
# [2] = test system: Monosodium urate (MSU) crystal-induced peritonitis; settings: mice, high concentrations injected into the peritoneum; cited from earlier work
SMILES,expression of classical Nrf2 target genes [1],relative efficiency/potency of inflammasome inhibition between compounds (NLRP3 inflammasome),"inflammasome activation (processed caspase-1, mature IL-1β and -18 in the supernatant) (NLRP3 inflammasome)",pyroptosis (release of lactate dehydrogenase) (THP-1 cells),inflammasome activation and MSU-induced peritonitis [2],"inflammasome inhibition by SFN with protein synthesis blocked by cycloheximide (NLRP3 inflammasome; CHX 30 μg/ml 1 h before SFN 10 μM, UVB 1 h later, 6 h, FIG. 2D)"
"CCCCCC=CC=C1C(=O)C=CC1CC=CCCCC(=O)O [15d-PGJ2, 15-deoxy-D-prostaglandin J2]",induction of classical Nrf2 target genes,much more efficient than tBHQ and DMF,inhibited inflammasome activation in a dose-dependent manner,strongly inhibited pyroptosis,blocked inflammasome activation and reduced MSU-induced peritonitis,
"C[S+]([O-])CCCCN=C=S (centres unmarked) [SFN, sulforaphane]",induction of classical Nrf2 target genes,much more efficient than tBHQ and DMF,inhibited inflammasome activation in a dose-dependent manner,strongly inhibited pyroptosis,blocked inflammasome activation and reduced MSU-induced peritonitis,did not prevent inflammasome inhibition
